From patent publication US20240109873A1, “ANTAGONISTS OF THE MUSCARINIC ACETYLCHOLINE RECEPTOR M4” (Vanderbilt University, priority 2020, published 2024)

Target: T1, human mAChR M4 (Homo sapiens, UniProt P08173)
T1 construct: expressed in transfected cells; host or cells: CHO-K1 (ATCC), co-transfected with chimeric G protein Gqi5
T1 sequence (P08173 1-479): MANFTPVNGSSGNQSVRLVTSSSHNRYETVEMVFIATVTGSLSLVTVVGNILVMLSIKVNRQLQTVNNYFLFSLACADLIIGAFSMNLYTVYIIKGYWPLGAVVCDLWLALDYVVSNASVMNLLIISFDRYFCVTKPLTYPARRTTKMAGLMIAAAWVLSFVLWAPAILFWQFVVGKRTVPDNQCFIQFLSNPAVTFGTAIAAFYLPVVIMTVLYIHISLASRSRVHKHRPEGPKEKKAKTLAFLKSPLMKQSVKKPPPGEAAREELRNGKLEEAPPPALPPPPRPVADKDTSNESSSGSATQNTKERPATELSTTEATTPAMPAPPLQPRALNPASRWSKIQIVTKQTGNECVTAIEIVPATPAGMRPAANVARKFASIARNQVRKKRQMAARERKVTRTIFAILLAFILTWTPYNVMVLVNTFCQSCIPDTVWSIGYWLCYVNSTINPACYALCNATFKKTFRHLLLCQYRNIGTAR
Test: mAChR M4 cell-based functional assay (calcium flux, antagonism of EC80 acetylcholine response, M4/Gqi5/CHO-K1 cells)
Conditions: for IC50: decrease of the response elicited by an EC80 concentration of acetylcholine, CHO-K1 cells, Gqi5
In short: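 CHO-K1 cells stably expressing human M4 with chimeric Gqi5, loaded with Fluo-4 AM; calcium flux read on FDSS. Compounds (10-point, 1:3 curves) added first, then EC20 acetylcholine at 143 s and EC80 at 268 s. IC50 from decrease of EC80 acetylcholine response, four-parameter logistic fit.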

SMILES	IC50 [nM]	remaining activity at 30 µM (CHO-K1, % ACh maximum at 30 μM, read-out: Human M4 Emin) [%]
[2H]C([2H])([C@H]1CCOC(C)(C)C1)N1C[C@H]2C[C@H](Nc3ccc(-c4cccnc4C(F)(F)F)nn3)C[C@H]2C1 (single isomer, unassigned) [Compound 61]	3.1	
[2H]C([2H])([C@@H]1CCOC(C)(C)C1)N1C[C@H]2C[C@H](Nc3ccc(-c4cccnc4C(F)(F)F)nn3)C[C@H]2C1 [Compound 62, (3aR,5s,6aS)-2-(((R)-2,2-dimethyltetrahydro-2H-pyran-4-yl)methyl-d2)-N-(6-(2-(trifluoromethyl)pyridin-3-yl)pyridazin-3-yl)octahydrocyclopenta[c]pyrrol-5-amine]	1.1	4
